Earlier results in patent publication US9872864B2, “Sustained release composition of prostacyclin” (priority 2011, dated 2018).

Conditions: background statement

half-life: 4 h
Compound: CCCCC[C@H](O)CC[C@@H]1[C@H]2Cc3cccc(OCC(=O)O)c3C[C@H]2C[C@H]1O [treprostinil]
